Test results published in article PMC2362861, “Potent interaction of flavopiridol with MRP1” (British Journal of Cancer, 1999).
Read-outs that look alike come from different tables or passages of the source.

What was measured:
MRP1 ATPase activity = target: T1, MRP1 ATPase activity (Homo sapiens, UniProt P33527); assay: ATPase activity of GLC4/ADR plasma membranes (colourimetric inorganic phosphate); format: biochemical
T1 construct: plasma membrane vesicles prepared from the MRP1 overexpressing cell line GLC4/ADR; endogenous in cells; host or cells: GLC4/ADR (adriamycin-selected human small-cell lung cancer subline); plasma membrane vesicles
T1 sequence (P33527 whole entry): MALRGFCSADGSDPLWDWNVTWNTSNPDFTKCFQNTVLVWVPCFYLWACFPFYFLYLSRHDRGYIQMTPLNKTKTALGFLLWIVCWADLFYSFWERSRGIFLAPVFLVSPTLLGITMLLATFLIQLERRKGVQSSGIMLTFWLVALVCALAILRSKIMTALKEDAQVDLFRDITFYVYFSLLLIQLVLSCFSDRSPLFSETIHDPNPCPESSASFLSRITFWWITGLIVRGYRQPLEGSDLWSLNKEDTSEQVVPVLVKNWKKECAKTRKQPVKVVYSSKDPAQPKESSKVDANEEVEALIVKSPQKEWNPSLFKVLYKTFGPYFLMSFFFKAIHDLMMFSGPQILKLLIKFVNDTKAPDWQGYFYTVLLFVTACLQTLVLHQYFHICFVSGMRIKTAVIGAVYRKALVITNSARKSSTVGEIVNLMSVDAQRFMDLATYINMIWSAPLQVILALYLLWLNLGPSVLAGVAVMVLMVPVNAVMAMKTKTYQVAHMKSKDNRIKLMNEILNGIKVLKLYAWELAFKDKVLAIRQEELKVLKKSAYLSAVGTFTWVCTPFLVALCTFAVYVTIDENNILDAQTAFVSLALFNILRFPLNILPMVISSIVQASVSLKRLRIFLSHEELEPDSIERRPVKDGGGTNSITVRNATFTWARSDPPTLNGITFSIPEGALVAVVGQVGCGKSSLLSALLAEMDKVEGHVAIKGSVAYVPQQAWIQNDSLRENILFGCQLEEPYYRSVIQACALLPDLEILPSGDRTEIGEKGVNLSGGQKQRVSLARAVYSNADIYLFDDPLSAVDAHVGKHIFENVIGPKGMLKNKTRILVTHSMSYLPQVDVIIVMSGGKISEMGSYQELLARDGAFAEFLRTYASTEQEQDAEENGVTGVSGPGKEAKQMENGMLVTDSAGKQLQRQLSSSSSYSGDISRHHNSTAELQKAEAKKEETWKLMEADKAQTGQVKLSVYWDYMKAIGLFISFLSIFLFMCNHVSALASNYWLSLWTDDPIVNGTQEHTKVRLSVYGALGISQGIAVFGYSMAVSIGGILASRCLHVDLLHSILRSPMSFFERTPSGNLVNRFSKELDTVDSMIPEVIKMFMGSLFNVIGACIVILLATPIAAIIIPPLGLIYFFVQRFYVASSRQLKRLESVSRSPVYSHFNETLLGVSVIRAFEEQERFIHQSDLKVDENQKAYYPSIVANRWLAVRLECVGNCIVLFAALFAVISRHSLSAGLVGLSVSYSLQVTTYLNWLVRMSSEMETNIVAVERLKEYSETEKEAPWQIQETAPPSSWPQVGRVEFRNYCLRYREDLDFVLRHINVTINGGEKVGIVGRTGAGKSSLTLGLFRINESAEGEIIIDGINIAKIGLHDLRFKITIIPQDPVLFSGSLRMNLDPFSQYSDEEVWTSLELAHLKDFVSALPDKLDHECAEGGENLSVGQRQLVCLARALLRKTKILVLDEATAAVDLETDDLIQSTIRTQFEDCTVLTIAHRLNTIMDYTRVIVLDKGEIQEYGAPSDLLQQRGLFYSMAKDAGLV
From the text: One form of cellular resistance, directed against a wide spectrum of natural agents, is referred to as multidrug resistance (MDR). […] The ATP-dependent transport of anticancer drugs out of tumour cells that express MDR proteins may at least theoretically lead to impaired treatment outcome of patients. […] 1-Chloro-2,4-dinitrobenzene (CDNB) was from Sigma (St Louis, MO, USA). […] The isoflavonoid genis- tein was from ICN Biomedicals (Zoetermeer, The Netherlands). […] The (iso)flavonoids were dissolved as a stock solution of 40 mM in dimethyl sulphoxide (DMSO; Across Chimica, Belgium) and stored at -20C. Before experiments, 1:1 dilutions were made in ethanol, followed by a dilution in ethanol/water (1: 3; v/v) to the appropriate concentrations. The maximal concentration of DMSO and ethanol, which was also added to the controls, was 0.5% (v/v). Membrane filters OE67 were from Schleicher and Schuell (Dassel, Germany). Doxorubicin hydrochloride was from Laboratoire Roger Bellon (France). […] S1(MRP1) cells were cultured in the presence of G418 until 2-10 days before experiments. […] Cells were harvested by centrifugation (275 g, 5 min) and washed twice in phosphate-buffered saline. Subsequently, the cells were incubated in 100 mM potassium chloride (KCl), 5 mM magnesium chloride (MgCl2 ), 1 mM phenylmethylsulphonyl fluoride and 50 mM HEPES-KOH (pH 7.4) for 1 h at 0C, in order to allow the cells to swell. Then the cells were ultrasonicated at 20% of the maximum power of an MSE sonicator (Soniprep 150) for three bursts of 15 s. The suspension was centrifuged at 1500 g for 10 min. […] After centrifugation at 100 000 g for 60 min the interface was removed and washed in 100 mM KC1-50 mM HEPES-5 mM MgCl2 buffer (pH 7.4). The final membrane preparations were stored at -80C at a protein concentration of ~ 4 mg ml-1 . […] Vesicles were incubated in KCl-HEPES buffer (pH 7.4) at 37C (protein concentration ~ 0.25 mg ml-1 ), in the presence of 10 mM MgCl2 with or without 1 mM ATP and tritium-labelled DNP-SG. The reaction was stopped by adding ice-cold KCl-HEPES buffer. After rapid filtration, the filters were washed twice with KCl-HEPES buffer. The radioactivity on the filters was measured by liquid scintillation counting. […] Plasma membranes were incubated for 1 h in KCl-HEPES buffer (pH 7.4) at 37C, in the presence of 1 mM EGTA, 1 mM sodium azide and 0.1 mM ouabain, with or without 1 mM ATP. […] Plasma membranes from GLC4 cells (black bars) and GLC4 /ADR cells (white bars) were incubated with 10 nM DNP-SG in the absence or presence of the MIB6 antibody (MIB6) (10 g ml-1 ) or an MRP1 control antibody (10 g ml-1 ). […] In short, anti-MRP1 antibodies were tested for their capacity to inhibit DNP-SG transport into GLC4 /ADR inside-out plasma membrane vesicles.

GLC4 cells = assay: Steady-state cellular [3H]daunorubicin accumulation in GLC4 cells; format: cell-based, human; settings: GLC4; (iso)flavonoid 50 µM (μM); 0.5 M DNR, 75 min
SW1573 = assay: Growth inhibition assay, SW1573; format: cell-based; settings: Homo sapiens, SW1573, 72 h, read-out: IC50 value
GLC4/ADR = assay: Growth inhibition assay, GLC4/ADR; format: cell-based, human; settings: for IC50: Homo sapiens, GLC-4/ADR
GLC4 = assay: Growth inhibition assay, GLC4; format: cell-based, human; settings: for IC50: Homo sapiens
[1] = during continuous infusion, ref Senderowicz et al, 1998, Stinson et al; cited from earlier work
S1(MRP) = assay: Growth inhibition assay, S1(MRP); format: cell-based, human
GLC4/ADR cells = assay: Steady-state cellular [3H]daunorubicin accumulation in GLC4/ADR cells; format: cell-based, human
cyclin-dependent kinases = system: cyclin-dependent kinases; set-up: method as in Losiewicz et al, 1996; settings: ref Losiewicz et al, 1996; cited from earlier work
S1(1.1) = assay: Growth inhibition assay, S1(1.1); format: cell-based; settings: Homo sapiens, 72 h, read-out: IC50 value

CN1CC[C@H](c2c(O)cc(O)c3c(=O)cc(-c4ccccc4Cl)oc23)[C@H](O)C1 [Flavopiridol, (-)cis-5,7-dihydroxy-2-(2-chlorophenyl)-8[4-(3-hydroxy-1-methyl)-piperidinyl]-4H-benzopyran-4-one]
Concentrations at which ATPase activity of GLC4/ADR membranes was significantly induced (MRP1 ATPase activity; GLC4/ADR membranes, lowest effective concentration and higher): ≥ 1 µM
Effect of GSH on (iso)flavonoid-induced MRP1 ATPase activity (MRP1 ATPase activity; GSH 0.5 mM or 5 mM, data not shown): no synergistic stimulation
Accumulation of daunorubicin, mean percentages of control (set at 100%) (GLC4 cells): 104%
IC50 (SW1573): 85 nM
Resistance compared to GLC4 (GLC4/ADR; GLC4/ADR vs GLC4): 2.8 times
IC50 (GLC4/ADR; 72 h, read-out: IC50 value): 128 nM
IC50 (GLC4/ADR; read-out: IC50 value): > 1000 nM
IC50 (GLC4/ADR; read-out: IC50 values): > 1000 nM
IC50 (GLC4; GLC4, 72 h, read-out: IC50 value): 45 nM
IC50 (GLC4; GLC4, read-out: IC50 value): > 1000 nM
IC50 (GLC4; GLC4, read-out: IC50 values): > 1000 nM
Growth inhibitory potency compared to genistein and kaempferol (GLC4; Table 3, all cell lines): about 100 fold
Steady-state plasma concentrations in humans [1]: 200 to 300 nM
IC50 (S1(MRP); Homo sapiens, S1(MRP), 72 h, read-out: IC50 value): 130 nM
Resistance compared to SW1573 (S1(MRP); S1(MRP) vs SW1573): 1.5 times
Effect on accumulation of DNR in GLC4/ADR cells (GLC4/ADR cells; 50 µM (μM)): increased the accumulation of DNR
Lowest concentration tested, giving a significant increase of DNR accumulation (GLC4/ADR cells; GLC4/ADR): 100 nM
Difference of DNR accumulation from control (P < 0.05) (GLC4/ADR cells; GLC4/ADR, all tested flavopiridol concentrations (0.1, 1, 5), Figure 6): gave a significant difference
Concentrations at which daunorubicin accumulation is affected (GLC4/ADR cells; GLC4/ADR, only tested compound active in this range): below 1 μM
Potency as inhibitor of cyclin-dependent kinases compared to genistein and quercetin (cyclin-dependent kinases): 250 fold
IC50 (S1(1.1)): 93 nM
